In patent US20070061084A1, “Method, system, and knowledge repository for identifying a secondary metabolite from a microorganism” (Ecopia BioSciences, Inc., priority 2002, published 2007):
Converted amounts (≈) assume the structure as drawn. Blank lines part the entries; values can stand above or below the molecule they belong to.

Columns and labels:
[1] = target: T1, Adenosine A3 Receptor (Homo sapiens, UniProt P0DMS8); details: radioligand, historical value; cited from earlier work
T1 sequence (P0DMS8 1-318): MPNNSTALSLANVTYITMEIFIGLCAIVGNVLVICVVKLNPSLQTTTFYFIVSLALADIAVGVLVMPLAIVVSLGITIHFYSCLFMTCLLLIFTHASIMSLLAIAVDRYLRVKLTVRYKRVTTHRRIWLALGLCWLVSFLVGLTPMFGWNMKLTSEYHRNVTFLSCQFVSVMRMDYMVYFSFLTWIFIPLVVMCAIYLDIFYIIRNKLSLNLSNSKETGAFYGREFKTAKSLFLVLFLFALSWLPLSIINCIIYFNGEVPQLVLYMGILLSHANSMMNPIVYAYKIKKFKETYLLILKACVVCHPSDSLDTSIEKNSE

[2] = test system: Saccharomyces cerevisiae FHCRC 50514; assay: Disk diffusion assay, antifungal bioactivity; type: cell-based; details: 37° C., 24 hours
Procedure: Antifungal bioactivity of Compound 1 (0506), in comparison to Amphotericin B, against Saccharomyces cerevisiae FHCRC 50514 was determined using a disk diffusion assay. Such an assay is commonly used to reveal activity of antifungal drugs against fungi (Wong G K, Griffith S, Kojima I and Demain A L, J. Antibiotics, 51(5): 487-491, 1998).
Inoculum (100 μL) was added to 100 mL of RPMI agar (kept at 55° C.) to give a final suspension of about 1×10^5 CFU/mL, and poured into 150 mm Petri dishes. Plates were used immediately upon setting of the agar.
Compound 1 (0506) was diluted in DMSO to a concentration of 3.2 mg/mL. A 20 μL sample (64 μg) was deposited on the agar surface of prepared plates. Amphotericin solution in DMSO (5 mg/mL; 10 μL; 50 μg) was also deposited, in a separate location, on the agar surface. A negative control (10 μL of stock solution) was also deposited in a separate location on the surface of the agar. The plates were incubated at 37° C. for 24 hours.

[3] = test system: Candida indicators; assay: Bioactivity screen of HPLC/MS fractions of organism 100 extracts; type: cell-based; details: compound of mass 1113 Da from organism 100 extracts
Procedure: An extract containing the putative polyene was obtained from organism 100 using a metabolomic approach to identify conditions under which the product of locus 100C was expressed. This approach obtains analytical measurement of all low molecular weight metabolites in a given organism at a specific time when grown under specific culture conditions. Organism 100 was grown in 48 different media, namely AA, AB, AC, BA, CA, CB, CI, DA, DY, DZ, EA, ES, ET, FA, GA, IB, JA, KA, KE, LA, MA, MC, MU, NA, NE, NF, NG, OA, PA, PB, QB, RA, RB, RC, RM, SF, SP, TA, VA, VB, WA, WS, XA, YA, ZA. Metabolites were extracted from whole cell cultures by adding of an equal volume of methanol. After removal of solid debris, the extract was concentrated and injected into an HPLC/MS system in which the metabolites were analyzed to obtain UV and mass data and purified fractions are collected in 96-well plates and assayed for multiple activities including antibiotic activity against gram-positive and gram-negative bacteria, and fungi.
Finally, the extracts generated by growth of organism 100 under each of the 48 media were analyzed for metabolites having physical, chemical and biological characteristics of polyenes. […]

[4] = test system: Saccharomyces cerevisiae Δpdr1/pdr3/erg6 (FHCRC 50514); assay: Broth dilution antifungal susceptibility (NCCLS M27A), MIC; details: 48 h, read-out: minimum inhibitory concentration (MIC)
[5] = target: T2, Angiotensin Converting Enzyme (Oryctolagus cuniculus, UniProt P12822); assay: ACE enzyme inhibition assay (spectrometric quantitation of FAPGG); type: biochemical; details: 10 μM in 1% DMSO; rabbit lung enzyme
T2 construct: ACE: Source: rabbit lung; from tissue; host or cells: rabbit lung
T2 sequence (P12822 34-1310): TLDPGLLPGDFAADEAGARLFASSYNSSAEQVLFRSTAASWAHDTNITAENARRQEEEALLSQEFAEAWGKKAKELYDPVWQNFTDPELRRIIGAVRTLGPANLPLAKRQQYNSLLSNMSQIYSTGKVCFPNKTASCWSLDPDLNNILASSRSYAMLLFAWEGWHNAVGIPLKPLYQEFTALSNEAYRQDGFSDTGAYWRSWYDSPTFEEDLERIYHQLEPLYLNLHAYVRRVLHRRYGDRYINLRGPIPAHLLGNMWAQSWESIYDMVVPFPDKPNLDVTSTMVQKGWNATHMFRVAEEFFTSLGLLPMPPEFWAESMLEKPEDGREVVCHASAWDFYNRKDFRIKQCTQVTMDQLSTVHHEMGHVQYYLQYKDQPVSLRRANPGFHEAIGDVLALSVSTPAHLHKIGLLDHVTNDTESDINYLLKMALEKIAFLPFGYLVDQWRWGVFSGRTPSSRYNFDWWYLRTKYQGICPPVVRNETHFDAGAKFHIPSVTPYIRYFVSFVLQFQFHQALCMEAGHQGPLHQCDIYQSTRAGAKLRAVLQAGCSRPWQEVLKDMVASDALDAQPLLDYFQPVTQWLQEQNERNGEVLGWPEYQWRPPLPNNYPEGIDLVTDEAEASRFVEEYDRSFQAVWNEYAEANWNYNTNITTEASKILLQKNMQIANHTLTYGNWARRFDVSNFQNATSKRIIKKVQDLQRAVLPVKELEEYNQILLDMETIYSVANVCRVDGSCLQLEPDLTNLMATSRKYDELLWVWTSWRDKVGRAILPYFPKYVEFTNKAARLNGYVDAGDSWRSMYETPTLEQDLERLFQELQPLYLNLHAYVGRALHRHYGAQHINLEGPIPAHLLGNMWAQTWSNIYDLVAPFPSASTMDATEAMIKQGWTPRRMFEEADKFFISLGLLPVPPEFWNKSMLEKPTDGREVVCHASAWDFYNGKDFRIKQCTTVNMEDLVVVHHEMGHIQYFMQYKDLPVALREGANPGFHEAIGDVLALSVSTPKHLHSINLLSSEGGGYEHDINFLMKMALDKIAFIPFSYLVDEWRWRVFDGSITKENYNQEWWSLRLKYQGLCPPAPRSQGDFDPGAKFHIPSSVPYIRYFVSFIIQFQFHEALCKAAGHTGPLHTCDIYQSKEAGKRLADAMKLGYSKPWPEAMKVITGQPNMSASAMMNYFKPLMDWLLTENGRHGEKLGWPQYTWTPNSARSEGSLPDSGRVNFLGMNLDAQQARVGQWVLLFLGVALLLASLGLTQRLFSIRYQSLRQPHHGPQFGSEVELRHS

[6] = target: T3, Protein Serine/Threonine Kinase MEK1 (Oryctolagus cuniculus, UniProt P29678); assay: MEK1 enzyme inhibition assay (Elisa quantitation of MBP-P); type: biochemical; details: 10 μM in 1% DMSO; rabbit recombinant E. coli
T3 construct: made in house; host or cells: E. coli

[7] = target: T1, Adenosine A3 Receptor; assay: Adenosine A3 radioligand binding assay; design: expressed in transfected cells; host or cells: CHO-K1 cells; details: 10 μM in 1% DMSO; human recombinant CHO-K1 cells; negative value = stimulation of binding

T3 sequence (P29678 whole entry): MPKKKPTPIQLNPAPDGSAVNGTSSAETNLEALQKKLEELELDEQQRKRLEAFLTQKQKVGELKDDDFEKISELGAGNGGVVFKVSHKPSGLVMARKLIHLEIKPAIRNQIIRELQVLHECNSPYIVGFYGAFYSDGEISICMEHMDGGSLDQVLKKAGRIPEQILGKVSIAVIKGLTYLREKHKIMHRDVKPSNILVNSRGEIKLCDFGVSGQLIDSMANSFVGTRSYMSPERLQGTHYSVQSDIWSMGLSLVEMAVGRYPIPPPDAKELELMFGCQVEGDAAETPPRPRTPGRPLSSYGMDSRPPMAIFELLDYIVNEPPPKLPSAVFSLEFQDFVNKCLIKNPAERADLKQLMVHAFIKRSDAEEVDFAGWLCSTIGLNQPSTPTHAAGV

Structure (SMILES): COc1cc2nc(N3CCN(C(=O)c4ccco4)CC3)nc(N)c2cc1OC [[H3] Prazosin, Prazosin]
Kd [1]: 0.29 nM

Structure (SMILES): C[C@@H]1[C@H](O)[C@@H](C)/C=C/C=C/C=C/C=C/C=C/C=C/C=C/[C@H](O[C@@H]2O[C@H](C)[C@@H](O)[C@H](N)[C@@H]2O)C[C@@H]2O[C@](O)(C[C@@H](O)C[C@@H](O)[C@H](O)CC[C@@H](O)C[C@@H](O)CC(=O)O[C@H]1C)C[C@H](O)[C@H]2C(=O)O [Amphotericin B, reference compound]
zone of inhibition (diameter) ([2]; at 50 μg deposited on agar): 23.9 mm

Structure (SMILES): CC1/C=C/C=C/C=C/C=C/C=C/C=C/C=C/C(OC2O[C@H](C)C(O)[C@H](N)C2O)CC2OC(O)(CC(O)CC(O)CC(O)CC(O)C[C@H](O)CC(O)CC(=O)OC1C(C)CCC(O)CC(=O)c1ccc(N)cc1)CC(O)C2C(=O)O (stereo partly drawn) [ayfactin]
antifungal activity [3]: antifungal activity

Structure (SMILES): C/C=C(\C)C(O)C(C)/C=C/C=C(\C)CCC(O)CC1=C(C)C(=O)C(C)(O)O1 (stereo not drawn) [Compound 2]
MIC [4]: 64 µg/mL (≈ 169 µM)

inhibition at 10 µM [5]: 50%
inhibition at 10 µM [6]: 63%
inhibition at 10 µM [7]: -101%
Structure (SMILES): CNC(CCCN(O)C(=O)C(CO)NC(=O)C(N)CCCN(C=O)C(=N)N)C(=O)NC(CO)C(=O)NC(CO)C(=O)NC(CCC(N)=O)C(=O)O (stereo not drawn) [Compound 1 (0506)]
zone of inhibition (diameter) ([2]; at 64 μg deposited on agar): 36.4 mm

Structure (SMILES): OC(Cn1cncn1)(Cn1cncn1)c1ccc(F)cc1F [Fluconazole, reference compound]
MIC [4]: 0.25 to 0.5 µg/mL (≈ 0.816 to 1.63 µM)
